Measured values from PMC12640828 (Frontiers in Pharmacology, 2025).

Assays:
[1] = system: TAC pressure-overload induced HF in mice; assay: TAC pressure-overload heart failure in mice: echocardiography and heart weight; format: in vivo, male C57BL/6 mice; conditions: 3.6 mg/kg/mouse s.c. on alternate days for 28 days
Method: Eight-week-old male C57BL/6 mice, purchased from Charles River Laboratories (Wilmington, MA), were housed in the institutional animal facility on a 12 h light/12 h dark cycle with free access to food and water throughout. Animal protocols were approved by the University of South Carolina-Institutional Animal Care and Use Committee (IACUC) following the NIH guidelines.
A transverse aortic constriction (TAC) procedure was followed to induce pressure-overload HF in mice ([Li et al., 2013]; [Kumar et al., 2019b]; [Kumar et al., 2020]). Briefly, mice were anesthetized under 1%–2% isoflurane and the chests of these mice were opened through the suprasternal notch. A 7–0 polypropylene suture was passed under the aortic arch between the left common carotid and innominate arteries and tied around the aorta and a 27-G needle. After tying a knot, the needle was removed, and the chest was closed using a 6–0 suture. Mice were kept on the 37 °C heat pad until they recovered and buprenorphine (0.1 mg/kg/mouse) was given subcutaneously (s.c.) as post-operative care. An identical procedure except tying a knot around the aortic arch was performed in the Sham groups of mice. Two days post-TAC, mice were divided into four groups (6–7 mice/gr): i- Sham, ii- Sham+NMEG-CGRP, iii- TAC, and iv- TAC+NMEG-CGRP. A stock solution 1 mg/mL of NMEG-CGRP was prepared in sterile 0.9% NaCl soln and NMEG-CGRP at 3.6 mg/kg/mouse dose was injected s.c. in the Sham+NMEG-CGRP and TAC+NMEG-CGRP groups of mice on alternate days for a total of 28 days. […]
The short axis 2D echocardiography was performed before TAC procedure (day 0) and then weekly after start of NMEG-CGRP administration in all groups of mice under 1%–2% isoflurane anesthesia using Vevo 3100 High-Resolution Imaging System (VisualSonics Inc., Toronto, Canada) and cardiac parameters were calculated using VisualSonics Measurement Software ([Li et al., 2013]; [Kumar et al., 2020]).

[2] = molecular target: T1, insulin-degrading enzyme (IDE) (Homo sapiens, UniProt P14735); assay: In vitro peptide digestion with IDE followed by LC-MS; format: in vitro ADME; conditions: 100 µM peptide, 0.1 µg IDE, 50 mM Tris-Cl pH 7.5 + 1M NaCl, 25 µL, 37 °C, sampled at 5, 30, 60 min
T1 construct: purchased R&D Systems, Minneapolis, MN
T1 sequence (P14735 1-1019): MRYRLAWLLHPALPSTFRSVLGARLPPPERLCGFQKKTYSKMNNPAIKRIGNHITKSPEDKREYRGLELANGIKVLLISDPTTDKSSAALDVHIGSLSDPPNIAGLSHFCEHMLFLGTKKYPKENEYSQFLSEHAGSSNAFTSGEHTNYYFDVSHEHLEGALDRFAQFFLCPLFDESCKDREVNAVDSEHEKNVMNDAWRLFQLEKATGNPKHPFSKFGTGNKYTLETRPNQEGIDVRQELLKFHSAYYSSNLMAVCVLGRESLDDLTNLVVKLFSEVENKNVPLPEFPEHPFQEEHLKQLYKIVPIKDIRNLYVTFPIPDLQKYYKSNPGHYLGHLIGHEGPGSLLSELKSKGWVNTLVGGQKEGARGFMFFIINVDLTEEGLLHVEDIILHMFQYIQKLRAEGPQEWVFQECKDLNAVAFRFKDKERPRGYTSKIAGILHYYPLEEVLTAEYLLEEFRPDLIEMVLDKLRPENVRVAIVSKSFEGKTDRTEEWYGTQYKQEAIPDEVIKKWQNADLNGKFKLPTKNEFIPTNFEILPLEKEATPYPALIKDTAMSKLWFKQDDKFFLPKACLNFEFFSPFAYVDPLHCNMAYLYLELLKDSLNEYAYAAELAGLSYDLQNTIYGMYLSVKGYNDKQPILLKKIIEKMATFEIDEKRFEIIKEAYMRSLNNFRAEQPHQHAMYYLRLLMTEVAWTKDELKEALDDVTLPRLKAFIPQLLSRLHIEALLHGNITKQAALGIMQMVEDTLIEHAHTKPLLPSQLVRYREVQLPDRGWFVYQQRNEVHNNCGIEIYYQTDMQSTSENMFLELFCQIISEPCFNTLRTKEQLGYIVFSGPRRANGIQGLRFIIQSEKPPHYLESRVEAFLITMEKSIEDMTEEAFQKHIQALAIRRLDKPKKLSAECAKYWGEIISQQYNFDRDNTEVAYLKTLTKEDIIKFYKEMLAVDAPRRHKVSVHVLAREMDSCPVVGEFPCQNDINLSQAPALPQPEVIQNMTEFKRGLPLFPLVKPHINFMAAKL
Method: An equal volume (25 µL) of 10% formic acid (Sigma) was added. After heating the reaction at 95 °C for 5 min, desalting of the peptides was carried out using Pierce C18 tips (87782; ThermoFisher Scientific). For peptide-desalting, 30 µL of 2.5% trifluoroacetic acid (TFA) was added in a total 50 µL of the peptide-digestion reaction. Pierce C18 tips were wetted in 50% acetonitrile:water soln, equilibrated with 0.1% TFA, and peptides were passed through the C18 tips. After washing the C18 tips with 0.1% TFA in 5% acetonitrile:water soln, peptides were eluted in 10 µL of 0.1% formic acid in 75% acetonitrile: water soln and stored at −80 °C. Desalted peptide samples were submitted for Liquid Chromatography Mass Spectrometry (LC-MS) analysis to the University of South Carolina-Mass Spectrometry Center.

[3] = Solubility in water; format: physicochemical
[4] = system: Rat cardiac H9C2 cells; assay: MTT-cell viability assay; format: cell-based; conditions: 1 μM, 3 μM and 10 µM, 4 days, MTT colorimetric
Method: The rat cardiac H9C2 cells were maintained in Dulbecco’s Modified Eagle Medium (DMEM) cell culture medium (supplemented with 10% fetal bovine serum, 4.5 gm/liter D-glucose, and 1x penicillin-streptomycin antibiotic solution) and grown at 37 °C in a humidified incubator with 5% CO2. Cells in a 96-well plate were treated with 1 μM, 3 μM, and 10 µM concentrations of NMEG-CGRP and CMEG-CGRP and further grown for 4 days. The cell viability assay was performed using colorimetric MTT-cell proliferation kit I (Roche-Millipore Sigma, St Louis, MO) following the vendor’s protocol.

Compound	Abnormalities / adverse effect in mice during NMEG-CGRP delivery ([1]; Sham- and TAC-mice)	EF, Sham vs. Sham+NMEG-CGRP ([1]; sham mice, day 30)	Fractional shortening (FS), Sham vs. Sham+NMEG-CGRP ([1]; sham mice, day 30)	Time to complete digestion of full-length peptide by IDE [2] [min]	Solubility in water [3]	Viability of cardiac cells (MTT optical density vs control) [4]
COCCNCC(=O)N(CCOC)CC(=O)N[C@@H](C)C(=O)N[C@H]1CSSC[C@@H](C(=O)N[C@H](C(=O)N[C@H](C(=O)N[C@@H](Cc2c[nH]cn2)C(=O)N[C@@H](CCCNC(=N)N)C(=O)N[C@@H](CC(C)C)C(=O)N[C@@H](C)C(=O)NCC(=O)N[C@@H](CC(C)C)C(=O)N[C@@H](CC(C)C)C(=O)N[C@@H](CO)C(=O)N[C@@H](CCCNC(=N)N)C(=O)N[C@@H](CO)C(=O)NCC(=O)NCC(=O)N[C@H](C(=O)N[C@H](C(=O)N[C@@H](CCCCN)C(=O)N[C@@H](CC(N)=O)C(=O)N[C@@H](CC(N)=O)C(=O)N[C@@H](Cc2ccccc2)C(=O)N[C@H](C(=O)N2CCC[C@H]2C(=O)N[C@H](C(=O)N[C@@H](CC(N)=O)C(=O)N[C@H](C(=O)NCC(=O)N[C@@H](CO)C(=O)N[C@@H](CCCCN)C(=O)N[C@@H](C)C(=O)N[C@@H](Cc2ccccc2)C(N)=O)C(C)C)[C@@H](C)O)C(C)C)C(C)C)C(C)C)[C@@H](C)O)C(C)C)NC(=O)[C@H]([C@@H](C)O)NC(=O)[C@H](C)NC(=O)[C@H]([C@@H](C)O)NC(=O)[C@H](CC(=O)O)NC1=O [NMEG-CGRP]	did not observe any abnormalities	non-significant	non-significant	> 60	soluble in water	did not inhibit the growth of H9C2 cells
CC(C)C[C@H](NC(=O)CNC(=O)[C@H](C)NC(=O)[C@H](CC(C)C)NC(=O)[C@H](CCCNC(=N)N)NC(=O)[C@H](Cc1cnc[nH]1)NC(=O)[C@@H](NC(=O)[C@@H](NC(=O)[C@@H]1CSSC[C@H](NC(=O)[C@H](C)N)C(=O)N[C@@H](CC(=O)O)C(=O)N[C@@H]([C@@H](C)O)C(=O)N[C@@H](C)C(=O)N[C@@H]([C@@H](C)O)C(=O)N1)C(C)C)[C@@H](C)O)C(=O)N[C@@H](CC(C)C)C(=O)N[C@@H](CO)C(=O)N[C@@H](CCCNC(=N)N)C(=O)N[C@@H](CO)C(=O)NCC(=O)NCC(=O)N[C@H](C(=O)N[C@H](C(=O)N[C@@H](CCCCN)C(=O)N[C@@H](CC(N)=O)C(=O)N[C@@H](CC(N)=O)C(=O)N[C@@H](Cc1ccccc1)C(=O)N[C@H](C(=O)N1CCC[C@H]1C(=O)N[C@H](C(=O)N[C@@H](CC(N)=O)C(=O)N[C@H](C(=O)NCC(=O)N[C@@H](CO)C(=O)N[C@@H](CCCCN)C(=O)N[C@@H](C)C(=O)N[C@@H](Cc1ccccc1)C(N)=O)C(C)C)[C@@H](C)O)C(C)C)C(C)C)C(C)C [human α-CGRP, reference compound]				5 to 30		
